Values of other authors in patent US20190091218A1 (priority 2016, published 2019).
Like-named read-outs stand apart in the source and are kept apart here.

Tests used:
[1] = biological target: H1 receptor (Homo sapiens, UniProt P35367); conditions: acidic pH
[2] = tested on: histamine induced wheal and flare
[3] = tested on: human rhinovirus (HRV)
[4] = not given; remark: listed apart in the source
[5] = standard 10 mg oral dose

Sequence of H1 receptor (P35367 whole entry): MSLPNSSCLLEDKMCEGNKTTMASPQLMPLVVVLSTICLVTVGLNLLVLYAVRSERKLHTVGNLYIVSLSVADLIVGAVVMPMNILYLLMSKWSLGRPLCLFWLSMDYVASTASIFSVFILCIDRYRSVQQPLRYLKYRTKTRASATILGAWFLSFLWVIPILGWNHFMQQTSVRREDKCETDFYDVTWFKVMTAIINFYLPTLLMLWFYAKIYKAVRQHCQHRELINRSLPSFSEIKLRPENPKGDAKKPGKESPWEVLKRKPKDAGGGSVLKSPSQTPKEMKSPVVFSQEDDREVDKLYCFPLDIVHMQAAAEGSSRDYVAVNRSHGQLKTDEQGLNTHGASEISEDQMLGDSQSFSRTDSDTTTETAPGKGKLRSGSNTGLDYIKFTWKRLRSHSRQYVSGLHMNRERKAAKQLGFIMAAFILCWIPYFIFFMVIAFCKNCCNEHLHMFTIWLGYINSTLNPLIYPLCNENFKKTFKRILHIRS

| mean AUC [5] [ng/h/mL] | SMILES | receptor affinity over first generation mepyramine [1] [×] | potency among modern generation antihistamines ([2]; histamine induced wheal and flare data) | effectiveness versus fexofenadine ([2]; levocetirizine 5 mg per day vs fexofenadine 180 mg per day) | dose that can be safely administered (studies in humans) | levels of HRV-induced increases in ICAM-1 ([3]; added before, after, or at the time of the HRV infection) | HRV-induced ICAM-1, cytokine expression, and viral replication ([3]; airway epithelial cells from nose and lung) | time to steady state level ([4]; in vivo) [h] | peak concentration ([4]; repeated 5 mg once daily oral dose) [ng/mL] | peak concentration ([4]; single 5 mg oral dose) [ng/mL] | dose administered without clinically relevant side effects (adult patients, 22 weeks) | dose administered without clinically relevant side effects (short-term studies, approximately one week) |
| --- | --- | --- | --- | --- | --- | --- | --- | --- | --- | --- | --- | --- |
|  | O=C(O)COCCN1CCN([C@H](c2ccccc2)c2ccc(Cl)cc2)CC1 [levocetirizine] | 5 | most potent of the five modern generation antihistamines | more effective than fexofenadine | up to 30 mg/day | reduced | inhibit | 40 | 308 | 270 |  |  |
| 2689 | CC(C)(O)c1ccccc1CC[C@@H](SCC1(CC(=O)O)CC1)c1cccc(/C=C/c2ccc3ccc(Cl)cc3n2)c1 [montelukast] |  |  |  |  |  |  |  |  |  | up to 200 mg/day | up to 900 mg/day |
